For assay [1], the system named is genotype 1b-Con1 subgenomic replicon cell line. Nature of the assay: microbe, parasite or virus in culture. In kind it is cell-based, HCV. As to conditions: Hepatitis C virus, 72 h, read-out: EC50 1b.
Assay [2] relates to genotype 1a-H77 subgenomic replicon cell line. Nature of the assay: microbe, parasite or virus in culture. As to conditions: Hepatitis C virus, 72 h, read-out: EC50 1a. In kind it is cell-based, HCV.
Assay [3] addresses T1, HCV polymerase 1B (Δ21 NS5B) (Hepatitis C virus genotype 1b, UniProt P26663).
T1 construct: 20 to 50nM Δ21 NS5B
Nature of the assay: biochemical. How it is done: (§1) Either two-fold serial dilutions (fractional inhibition assay) or a narrower range of dilutions spanning the IC50 of the inhibitor (tight binding assay) of the inhibitors were incubated with 20mM Tris-Cl pH 7.4, 2 mM MnCl2, 1 mM dithiothreitol, 1 mM ethylene diamine tetraacetic acid (EDTA), 60 to 125μM GTP and 20 to 50nM Δ21 NS5B (HCV Strain 1B (BK, Genbank accession number M58335, or H77, Genbank accession number AF011751)) for 15min at room temperature. The reaction was initiated by the addition of 20μM CTP, 20μM ATP, 1μM ^3H-UTP (10mCi/umol), 5nM template RNA and 0.1 U/μl RNase inhibitor (RNasin, Promega), and allowed to proceed for 2 to 4h at room temperature. Reaction volume was 50μl. The reaction was terminated by the addition of 1 volume of 4mM spermine in 10mM Tris-Cl pH 8.0, 1mM EDTA. After incubation for at least 15 min at room temperature, the precipitated RNA was captured by filtering through a GF/B filter (Millipore) in a 96 well format. The filter plate was washed three times with 200μl each of 2mM spermine, 10mM Tris-Cl pH 8.0, lmM EDTA, and 2 times with ethanol. After air-drying, 30μl of Microscint 20 scintillation cocktail (Packard) was added to each well, and the retained cpm were determined by scintillation counting. […] Retained cpm were plotted vs. inhibitor concentration and fit to equation 1 using non-linear regression (ref. 1) to obtain the IC50 values: Retained cpm=A[sqrt{(IC50+It−Et)^2+4*IC50*Et}−([…])]
Ref. Morrison, J. F. and S. R. Stone. 1985. Approaches to the study and analysis of the inhibition of enzymes by slow- and tight-binding inhibitors. Comments Mol. Cell. Biophys. 2: 347-368.
(§2) The sequence of the template RNA used was: 5′-[…]-3′

Assay [4] deals with T2, HCV polymerase 1A (Δ21 NS5B) (Hepatitis C virus genotype 1a, UniProt P27958).
T2 construct: 20 to 50nM Δ21 NS5B
T2 sequence (P27958 2421-2990, stated change not applied): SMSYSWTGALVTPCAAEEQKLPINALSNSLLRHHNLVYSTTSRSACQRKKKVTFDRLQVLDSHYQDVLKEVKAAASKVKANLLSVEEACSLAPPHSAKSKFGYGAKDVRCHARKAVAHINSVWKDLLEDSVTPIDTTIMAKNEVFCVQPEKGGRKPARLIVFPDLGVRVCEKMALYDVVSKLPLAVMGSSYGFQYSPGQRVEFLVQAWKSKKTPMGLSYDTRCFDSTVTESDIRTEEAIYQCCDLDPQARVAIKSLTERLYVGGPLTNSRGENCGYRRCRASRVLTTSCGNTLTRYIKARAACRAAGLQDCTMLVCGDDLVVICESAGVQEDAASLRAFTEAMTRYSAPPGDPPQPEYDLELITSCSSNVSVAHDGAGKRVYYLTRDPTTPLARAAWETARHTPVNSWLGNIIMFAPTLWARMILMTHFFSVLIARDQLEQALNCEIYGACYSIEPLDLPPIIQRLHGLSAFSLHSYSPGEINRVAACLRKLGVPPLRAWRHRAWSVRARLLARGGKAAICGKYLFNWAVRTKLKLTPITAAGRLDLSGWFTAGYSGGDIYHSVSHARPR
Nature of the assay: HCV Polymerase Inhibition Assay (1a). In kind it is biochemical. The procedure: as §1, with “The” for “Either two-fold serial dilutions (fractional inhibition assay) or a narrower range of dilutions spanning the IC50 of the inhibitor (tight binding assay) of the inhibitors were incubated with 20mM Tris-Cl pH 7.4, 2 mM MnCl2, 1 mM dithiothreitol, 1 mM ethylene diamine tetraacetic acid (EDTA), 60 to 125μM GTP and 20 to 50nM Δ21 NS5B (HCV Strain 1B (BK, Genbank accession number M58335, or H77, Genbank accession number AF011751)) for 15min at room temperature. The”
Ref. Morrison, J. F. and S. R. Stone. […] Approaches to the study and analysis of the inhibition of enzymes by slow- and tight-binding inhibitors. Comments Mol. Cell. Biophys.
as §2

Among the data in US8501238B2, “Anti-infective agents and uses thereof” (priority 2007, dated 2013) are EC50 and IC50 values, retold here.

A value given as a limit tells only on which side of the number the result lay.

T1 sequence (P26663 2420-2989, stated change not applied): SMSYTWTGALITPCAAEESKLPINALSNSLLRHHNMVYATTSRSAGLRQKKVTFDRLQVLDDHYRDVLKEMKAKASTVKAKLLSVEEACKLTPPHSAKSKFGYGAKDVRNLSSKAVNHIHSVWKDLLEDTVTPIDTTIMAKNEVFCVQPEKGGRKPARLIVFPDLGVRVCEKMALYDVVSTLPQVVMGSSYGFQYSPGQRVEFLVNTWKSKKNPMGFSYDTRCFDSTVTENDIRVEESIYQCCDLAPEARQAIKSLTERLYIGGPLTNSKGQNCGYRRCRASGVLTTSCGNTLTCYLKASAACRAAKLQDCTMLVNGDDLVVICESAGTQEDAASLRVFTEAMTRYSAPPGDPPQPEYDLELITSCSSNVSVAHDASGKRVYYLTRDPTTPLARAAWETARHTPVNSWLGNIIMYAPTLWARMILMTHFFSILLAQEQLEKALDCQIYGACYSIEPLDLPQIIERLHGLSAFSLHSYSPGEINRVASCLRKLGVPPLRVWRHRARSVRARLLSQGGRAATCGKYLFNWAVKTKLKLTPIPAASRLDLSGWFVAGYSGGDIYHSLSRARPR

As for `COc1c(-c2ccc3c(c2)CC[C@@H]3CNS(C)(=O)=O)cc(-n2ccc(=O)[nH]c2=O)cc1C(C)(C)C` (single isomer, unassigned) [IB-L0-2.9], the EC50 in assay [1] and in assay [2] was below 10 nM throughout.

For `COc1c(-c2ccc3c(c2)CC[C@H]3CNS(C)(=O)=O)cc(-n2ccc(=O)[nH]c2=O)cc1C(C)(C)C` (single isomer, unassigned) [IB-L0-2.15], the EC50 lay within 10 to 100 nM in assay [1] and 100 to 1000 nM in assay [2].

Turning to `COc1c(-c2ccc3c(c2)CC[C@@H]3C(C)(C)NS(C)(=O)=O)cc(-n2ccc(=O)[nH]c2=O)cc1C(C)(C)C` (single isomer, unassigned) [IB-L0-2.22], the results for the EC50 in assay [1] and in assay [2] were 10 to 100 nM and 100 to 1000 nM, respectively.

Regarding `COc1c(-c2ccc3c(c2)CC[C@H]3C(C)(C)NS(C)(=O)=O)cc(-n2ccc(=O)[nH]c2=O)cc1C(C)(C)C` (single isomer, unassigned) [IB-L0-2.37], the EC50 in assay [1] was 100 to 1000 nM; in assay [2], above 1000 nM.

In the case of `CC(C)(C)c1cc(-c2ccc3c(c2)CC/C3=N\NS(C)(=O)=O)cc(-n2ccc(=O)[nH]c2=O)c1` [IB-L0-2.7, (E)-N-(5-(3-tert-butyl-5-(2,4-dioxo-3,4-dihydropyrimidin-1(2H)-yl)phenyl)-2,3-dihydro-1H-inden-1-ylidene)methanesulfonohydrazide], the EC50 in assay [1] lay within 10 to 100 nM; in assay [2] it was 100 to 1000 nM.

Consider `COc1c(-c2ccc3c(CNS(C)(=O)=O)csc3c2)cc(-n2ccc(=O)[nH]c2=O)cc1C(C)(C)C` [IB-L0-2.11], for which the results for the EC50 in assay [1] and in assay [2] were below 10 nM and 10 to 100 nM, respectively.

Take `COc1c(-c2ccc3c(c2)CCC3(F)CNS(C)(=O)=O)cc(-n2ccc(=O)[nH]c2=O)cc1C(C)(C)C` (stereo not shown) [IB-L0-2.12, N-((5-(3-tert-butyl-5-(2,4-dioxo-3,4-dihydropyrimidin-1(2H)-yl)-2-methoxyphenyl)-1-fluoro-2,3-dihydro-1H-inden-1-yl)methyl)methanesulfonamide]: the EC50 in assay [1] is below 10 nM; in assay [2], 10 to 100 nM.

In the case of `COc1c(-c2ccc3c(c2)CC=C3CNS(C)(=O)=O)cc(-n2ccc(=O)[nH]c2=O)cc1C(C)(C)C` [IB-L0-2.13], the EC50 was below 10 nM in assay [1] and 10 to 100 nM in assay [2].

With `COc1c(-c2ccc3c(c2)CC=C3CN(C)S(C)(=O)=O)cc(-n2ccc(=O)[nH]c2=O)cc1C(C)(C)C` [IB-L0-2.16], the IC50 was 10 to 100 nM in assay [3] and below 10 nM in assay [4].

On to `COc1c(-c2ccc3c(c2)CCC3CNS(C)(=O)=O)cc(-n2ccc(=O)[nH]c2=O)cc1C(C)(C)C` (stereo not shown) [IB-L0-2.17, N-((5-(3-tert-butyl-5-(2,4-dioxo-3,4-dihydropyrimidin-1(2H)-yl)-2-methoxyphenyl)-2,3-dihydro-1H-inden-1-yl)methyl)methanesulfonamide], for which the EC50 in assay [1] was below 10 nM; in assay [2], 10 to 100 nM.

In the case of `COc1c(-c2ccc3c(CNS(C)(=O)=O)coc3c2)cc(-n2ccc(=O)[nH]c2=O)cc1C(C)(C)C` [IB-L0-2.18], the EC50 in assay [1] lay within 10 to 100 nM; in assay [2], 100 to 1000 nM.

`COc1c(-c2ccc3c(CN(C)S(C)(=O)=O)csc3c2)cc(-n2ccc(=O)[nH]c2=O)cc1C(C)(C)C` [IB-L0-2.21]: the EC50 was 10 to 100 nM in assay [1] and 100 to 1000 nM in assay [2].

In the case of `COC(=O)NN=C1CCc2cc(-c3cc(-n4ccc(=O)[nH]c4=O)cc(C(C)(C)C)c3OC)ccc21` [IB-L0-2.24, methyl 2-(5-(3-tert-butyl-5-(2,4-dioxo-3,4-dihydropyrimidin-1 (2H)-yl)-2-methoxyphenyl)-2,3-dihydro-1H-inden-1-ylidene)hydrazinecarboxylate], the EC50 in assay [1] and in assay [2] was 10 to 100 nM each time.

Consider `COc1c(-c2ccc3c(c2)CCC3(C)CNS(C)(=O)=O)cc(-n2ccc(=O)[nH]c2=O)cc1C(C)(C)C` (stereo not shown) [IB-L0-2.25, N-((5-(3-tert-butyl-5-(2,4-dioxo-3,4-dihydropyrimidin-1(2H)-yl)-2-methoxyphenyl)-1-methyl-2,3-dihydro-1H-inden-1-yl)methyl)methane sulfonamide], for which the results for the EC50 in assay [1] and in assay [2] were 10 to 100 nM and 100 to 1000 nM, respectively.

For `COc1c(-c2ccc3c(c2)CCC3C(C)(C)NS(C)(=O)=O)cc(-n2ccc(=O)[nH]c2=O)cc1C(C)(C)C` (stereo not shown) [IB-L0-2.29, N-(2-(5-(3-tert-butyl-5-(2,4-dioxo-3,4-dihydropyrimidin-1(2H)-yl)-2-methoxyphenyl)-2,3-dihydro-1H-inden-1-yl)propan-2-yl)methanesulfonamide], the EC50 lay in the range of 10 to 100 nM in assay [1] and 100 to 1000 nM in assay [2].

On to `COc1c(-c2ccc3c(c2)CCC3C(=O)NS(C)(=O)=O)cc(-n2ccc(=O)[nH]c2=O)cc1C(C)(C)C` (stereo not shown) [IB-L0-2.34, 5-(3-tert-butyl-5-(2,4-dioxo-3,4-dihydropyrimidin-1(2H)-yl)-2-methoxyphenyl)-N-(methylsulfonyl)-2,3-dihydro-1H-indene-1-carboxamide], for which the results for the EC50 in assay [1] and in assay [2] were 100 to 1000 nM and above 1000 nM, respectively.

For `CC(C)(C)c1cc(-n2ccc(=O)[nH]c2=O)cc(-c2ccc3c(CNS(C)(=O)=O)csc3c2)c1Cl` [IB-L0-2.35, N-((6-(3-tert-butyl-2-chloro-5-(2,4-dioxo-3,4-dihydropyrimidin-1(2H)-yl)phenyl)benzo [b]thiophen-3-yl)methyl)methanesulfonamide], the EC50 in assay [1] is 100 to 1000 nM; in assay [2] it was above 1000 nM.

With `COc1c(-c2ccc3c(c2)CCC3O)cc(-n2ccc(=O)[nH]c2=O)cc1C(C)(C)C` (stereo not shown) [IB-L0-2.36, 1-(3-tert-butyl-5-(1-hydroxy-2,3-dihydro-1H-inden-5-yl)-4-methoxyphenyl)pyrimidine-2,4(1H,3H)-dione], the EC50 was in the range of 10 to 100 nM in assay [1] and 100 to 1000 nM in assay [2].

`COc1c(-c2ccc3cc(CNS(C)(=O)=O)sc3c2)cc(-n2ccc(=O)[nH]c2=O)cc1C(C)(C)C` [IB-L0-2.40]: the EC50 in assay [1] is 100 to 1000 nM; in assay [2], above 1000 nM.

As to `COc1c(-c2ccc3c(c2)CCC3NS(C)(=O)=O)cc(-n2ccc(=O)[nH]c2=O)cc1C(C)(C)C` (stereo not shown) [IB-L0-2.44, N-(5-(3-tert-butyl-5-(2,4-dioxo-3,4-dihydropyrimidin-1(2H)-yl)-2-methoxyphenyl)-2,3-dihydro-1H-inden-1-yl)methanesulfonamide], the EC50 in assay [1] and in assay [2] was above 1000 nM throughout.

As to `CCCNc1nc2ccc(-c3cc(-n4ccc(=O)[nH]c4=O)cc(C(C)(C)C)c3OC)cc2s1` [IB-L0-2.46, 1-(3-tert-butyl-4-methoxy-5-(2-(propylamino)benzo[d]thiazol-6-yl)phenyl)pyrimidine-2,4(1H,3H)-dione], the IC50 in assay [3] and in assay [4] was 100 to 1000 nM each time.

Consider `COc1c(-c2ccc3c(c2)CCC3=O)cc(-n2ccc(=O)[nH]c2=O)cc1C(C)(C)C` [IB-L0-2.50, 1-(3-tert-butyl-4-methoxy-5-(1-oxo-2,3-dihydro-1H-inden-5-yl)phenyl)pyrimidine-2,4(1H,3H)-dione], for which the EC50 in assay [1] and in assay [2] was 100 to 1000 nM each time.

With `COc1c(-c2ccsc2)cc(-n2ccc(=O)[nH]c2=O)cc1-c1ccc2c(c1)CC=C2CNS(C)(=O)=O` [IB-L0-2.62], the figures for the EC50 in assay [1] and in assay [2] were 10 to 100 nM and 100 to 1000 nM, respectively.

On to `COc1c(-c2ccc3c(c2)CC=C3CNS(C)(=O)=O)cc(-n2ccc(=O)[nH]c2=O)cc1-c1cccs1` [IB-L0-2.63], for which the EC50 in assay [1] lay within 10 to 100 nM; in assay [2], 100 to 1000 nM.

Consider `COc1c(-c2ccc3c(c2)CC=C3CNS(C)(=O)=O)cc(-n2ccc(=O)[nH]c2=O)cc1-c1ccco1` [IB-L0-2.65], for which the EC50 in assay [1] lay in the range of 10 to 100 nM; in assay [2], 100 to 1000 nM.

As to `COc1c(-c2ccoc2)cc(-n2ccc(=O)[nH]c2=O)cc1-c1ccc2c(c1)CC=C2CNS(C)(=O)=O` [IB-L0-2.67], the EC50 in assay [1] is 10 to 100 nM; in assay [2], 100 to 1000 nM.

What is called EC50 is the concentration that produces a half-maximal response. One may read the IC50 as the concentration that gives 50% inhibition.
